Measurements from patent US12384771B2, “Pleuromutilin derivative containing thiazole-pyridine benzyl quaternary ammonium salt side chain and preparation method and use thereof” (SHAANXI UNIVERSITY OF SCIENCE AND TECHNOLOGY, priority 2022, dated 2025).
Values after ≈ are worked out from the molar mass of the structure shown. Structures can show the parent of a compound that is named as a salt. Where two headings read alike, the source gives them in different places.

Key:
[1] = tested on: multidrug-resistant Klebsiella pneumoniae (MDR-KP) 18-754; assay: MIC, clinical drug-resistant bacteria; format: cell-based
Procedure: (§1) The minimum inhibitory concentration (MIC) of the pleuromutilin derivative containing thiazole-pyridine benzyl quaternary ammonium salt side chain was tested with moxifloxacin as a positive control (purchased from Shanghai Macklin Biochemical Technology Co., Ltd.) using a microbroth dilution method. At the same time, the pleuromutilin derivative containing thiazole-pyridine benzyl quaternary ammonium salt side chain of the invention was compared with the marketed pleuromutilin antibiotics, such as retapamulin (purchased from Nanjing Chemlin Chemical Industry Co., Ltd.), tiamulin (purchased from Shanghai Yuanye Bio-Technology Co., Ltd) and valnemulin (purchased from Shanghai Acmec Biochemical Co., Ltd), in order to screen out pleuromutilin derivatives with better activity.
(§2) Clinical resistant bacteria include multidrug-resistant Pseudomonas aeruginosa (MDR-PA) 18-993, 18-756 and 18-126, multidrug-resistant Klebsiella pneumoniae (MDR-KP) 18-893, 18-754 and 18-1482, methicillin-resistant Staphylococcus aureus (MRSA) 18-171, 18-209 and 18-575, vancomycin-resistant Enterococcus faecalis (VRE) 18-94, 18-80 and 18-507, and carbapenem-resistant Acinetobacter baumannii (CR-AB) 18-184, 18-560 and 18-882, all the clinical drug-resistant strains were from Huashan Hospital, Fudan University.

[2] = tested on: methicillin-resistant Staphylococcus aureus (MRSA) 18-209; assay: MIC, clinical drug-resistant bacteria; format: cell-based
Procedure: as §1, §2

[3] = tested on: multidrug-resistant Pseudomonas aeruginosa (MDR-PA) 18-756; assay: MIC, clinical drug-resistant bacteria; format: cell-based
Procedure: as §1, §2

[4] = tested on: carbapenem-resistant Acinetobacter baumannii (CR-AB) 18-882; assay: MIC, clinical drug-resistant bacteria; format: cell-based
Procedure: as §1, §2

[5] = tested on: carbapenem-resistant Acinetobacter baumannii (CR-AB) 18-184; assay: MIC, clinical drug-resistant bacteria; format: cell-based
Procedure: as §1, §2

[6] = tested on: vancomycin-resistant Enterococcus faecalis (VRE) 18-80; assay: MIC, clinical drug-resistant bacteria; format: cell-based; details: read-out: Minimum inhibitory concentration against clinical drug-resistant bacteria
Procedure: as §1, §2

[7] = tested on: vancomycin-resistant Enterococcus faecalis (VRE) 18-94; assay: MIC, clinical drug-resistant bacteria; format: cell-based; details: read-out: Minimum inhibitory concentration against clinical drug-resistant bacteria
Procedure: as §1, §2

[8] = tested on: vancomycin-resistant Enterococcus faecalis (VRE) 18-507; assay: MIC, clinical drug-resistant bacteria; format: cell-based; details: read-out: Minimum inhibitory concentration against clinical drug-resistant bacteria
Procedure: as §1, §2

[9] = tested on: methicillin-resistant Staphylococcus aureus (MRSA) 18-171; assay: MIC, clinical drug-resistant bacteria; format: cell-based
Procedure: as §1, §2

[10] = tested on: carbapenem-resistant Acinetobacter baumannii (CR-AB) 18-560; assay: MIC, clinical drug-resistant bacteria; format: cell-based
Procedure: as §1, §2

[11] = tested on: methicillin-resistant Staphylococcus aureus (MRSA) 18-575; assay: MIC, clinical drug-resistant bacteria; format: cell-based
Procedure: as §1, §2

[12] = tested on: multidrug-resistant Klebsiella pneumoniae (MDR-KP) 18-893; assay: MIC, clinical drug-resistant bacteria; format: cell-based
Procedure: as §1, §2

[13] = tested on: multidrug-resistant Pseudomonas aeruginosa (MDR-PA) 18-126; assay: MIC, clinical drug-resistant bacteria; format: cell-based
Procedure: as §1, §2

[14] = tested on: multidrug-resistant Pseudomonas aeruginosa (MDR-PA) 18-993; assay: MIC, clinical drug-resistant bacteria; format: cell-based
Procedure: as §1, §2

[15] = tested on: multidrug-resistant Klebsiella pneumoniae (MDR-KP) 18-1482; assay: MIC, clinical drug-resistant bacteria; format: cell-based
Procedure: as §1, §2

[16] = tested on: Acinetobacter baumannii ATCC 19606; assay: MIC, microbroth dilution, standard strains; format: cell-based
Procedure: (§3) The minimum inhibitory concentration (MIC) of the pleuromutilin derivative containing thiazole-pyridine benzyl quaternary ammonium salt side chain was tested with moxifloxacin as a positive control (purchased from Shanghai Macklin Biochemical Technology Co., Ltd.) using a microbroth dilution method.
(§4) Standard strains include gram-positive bacteria: Staphylococcus epidermidis ATCC 12228, Staphylococcus aureus ATCC 29213, ATCC 25923 and methicillin-resistant Staphylococcus aureus ATCC 33591; gram-negative bacteria: Salmonella ATCC 14028, Acinetobacter baumannii ATCC 19606, Escherichia coli ATCC 25922 and CMCC 44103, all the strains were purchased from the American Type Culture Collection.

[17] = tested on: Escherichia coli ATCC 25922; assay: MIC, microbroth dilution, standard strains; format: cell-based
Procedure: as §3, §4

[18] = tested on: Staphylococcus epidermidis ATCC 12228; assay: MIC, microbroth dilution, standard strains; format: cell-based
Procedure: as §3, §4

Salmonella ATCC 14028 = assay: MIC, microbroth dilution, standard strains; format: cell-based
Procedure: as §3, §4

[19] = tested on: methicillin-resistant Staphylococcus aureus ATCC 33591; assay: MIC, microbroth dilution, standard strains; format: cell-based
Procedure: as §3, §4

[20] = tested on: Staphylococcus aureus ATCC 29213; assay: MIC, microbroth dilution, standard strains; format: cell-based
Procedure: as §3, §4

[21] = tested on: Staphylococcus aureus ATCC 25923; assay: MIC, microbroth dilution, standard strains; format: cell-based
Procedure: as §3, §4

[22] = tested on: Escherichia coli CMCC 44103; assay: MIC, microbroth dilution, standard strains; format: cell-based
Procedure: as §3, §4

physchem = details: thermodynamic from solid
Procedure: Experimental method: representative compounds 2, 4 and 7 were selected for solubility determination, and retapamulin hydrochloride was used as a control. 1 mg of each sample was taken and quantitatively dissolved in a 10 mL volumetric flask, and the absorption peak area was measured by a high-performance liquid chromatography; then, the saturated solutions of the representative compounds 2, 4 and 7 and the control drug retapamulin were diluted 10-fold, and the absorption peak area was determined by HPLC; their respective solubility was obtained by calculating the absorption peak area.
The experimental instrument was Shimadzu LC-16, the chromatographic column was Hypersil C18 ODS (4.6×250 mm×5 μm), the flow rate was 1.0 mL/min, the detection wavelength was 300 nm, and the mobile phase was 0.05 mol/L of aqueous acetic acid solution:acetonitrile=30:70.

[23] = MDR-KP 18-754, read-out: Minimum inhibitory concentration against clinical drug-resistant bacteria
[24] = MRSA 18-209, read-out: Minimum inhibitory concentration against clinical drug-resistant bacteria
[25] = MDR-PA 18-756, read-out: Minimum inhibitory concentration against clinical drug-resistant bacteria
[26] = CR-AB 18-882, read-out: Minimum inhibitory concentration against clinical drug-resistant bacteria
[27] = CR-AB 18-184, read-out: Minimum inhibitory concentration against clinical drug-resistant bacteria
[28] = MRSA 18-171, read-out: Minimum inhibitory concentration against clinical drug-resistant bacteria
[29] = CR-AB 18-560, read-out: Minimum inhibitory concentration against clinical drug-resistant bacteria
[30] = MRSA 18-575, read-out: Minimum inhibitory concentration against clinical drug-resistant bacteria
[31] = MDR-KP 18-893, read-out: Minimum inhibitory concentration against clinical drug-resistant bacteria
[32] = MDR-PA 18-126, read-out: Minimum inhibitory concentration against clinical drug-resistant bacteria
[33] = MDR-PA 18-993, read-out: Minimum inhibitory concentration against clinical drug-resistant bacteria
[34] = MDR-KP 18-1482, read-out: Minimum inhibitory concentration against clinical drug-resistant bacteria
[35] = ATCC19606, ATCC 19606, read-out: Minimum inhibitory concentration
[36] = ATCC25922, ATCC 25922, read-out: Minimum inhibitory concentration
[37] = ATCC12228, ATCC 12228, read-out: Minimum inhibitory concentration
[38] = ATCC14028, ATCC 14028, read-out: Minimum inhibitory concentration
[39] = ATCC33591, ATCC 33591, read-out: Minimum inhibitory concentration
[40] = ATCC29213, ATCC 29213, read-out: Minimum inhibitory concentration
[41] = ATCC25923, ATCC 25923, read-out: Minimum inhibitory concentration
[42] = CMCC44103, CMCC 44103, read-out: Minimum inhibitory concentration
[43] = pH 1.5, simulated gastric fluid
[44] = read-out: Minimum inhibitory concentration against clinical drug-resistant bacteria
[45] = MRSA, read-out: Minimum inhibitory concentration against clinical drug-resistant bacteria

C=C[C@]1(C)C[C@@H](OC(=O)CSc2nc(-c3cc[n+](Cc4ccc(C)cc4)cc3)cs2)[C@]2(C)[C@H](C)CC[C@]3(CCC(=O)[C@H]32)[C@@H](C)[C@@H]1O [Compound 2, 1-(4-Methylbenzyl)-4-(2-((2-((8-hydroxy-4,7,9,12-tetramethyl-3-oxo-7-vinyldecahydro-4,9a-propancyclopent[8]cyclen-5-yl)oxy)-2-oxoethyl)thio)thiazol-4-yl)pyridyl bromide salt]
MIC [1, 23]: 32 µg/mL | MIC [2, 24]: 128 µg/mL | MIC [3, 25]: 128 µg/mL | MIC [4, 26]: 8 µg/mL | MIC [5, 27]: 16 µg/mL | MIC ([6]; VRE 18-80): 2 µg/mL | MIC ([7]; VRE 18-94): > 128 µg/mL | MIC ([8]; VRE 18-507): > 128 µg/mL | MIC [9, 28]: 4 µg/mL | MIC [10, 29]: > 128 µg/mL | MIC [11, 30]: > 128 µg/mL | MIC [12, 31]: 16 µg/mL | MIC [13, 32]: 64 µg/mL | MIC [14, 33]: 128 µg/mL | MIC [15, 34]: 64 µg/mL | MIC [16, 35]: 1 µg/mL | MIC [17, 36]: 0.0625 µg/mL | MIC [18, 37]: 1 µg/mL | MIC (Salmonella ATCC 14028; [38]): 2 µg/mL | MIC [19, 39]: 1 µg/mL | MIC [20, 40]: 0.0625 µg/mL | MIC [21, 41]: 0.0625 µg/mL | MIC [22, 42]: 0.5 µg/mL | solubility (physchem; organic solvent or mixture): 13200 µg/mL | solubility (physchem; [43]): 2760 µg/mL | solubility (physchem; pH 7, water): 2020 µg/mL

C=C[C@]1(C)C[C@@H](OC(=O)CSc2nc(-c3cc[n+](Cc4ccc(OC)cc4)cc3)cs2)[C@]2(C)[C@H](C)CC[C@]3(CCC(=O)[C@H]32)[C@@H](C)[C@@H]1O [Compound 4, 1-(4-(methoxy)benzyl)-4-(2-(8-hydroxy-4,7,9,12-tetramethyl-3-oxo-7-vinyldecahydro-4,9a-propancyclopent[8]cyclen-5-yl)oxy)-2-oxoethyl)thiazol-4-yl)pyridyl bromide salt]
MIC [1, 23]: 32 µg/mL | MIC [2, 24]: 128 µg/mL | MIC [3, 25]: > 128 µg/mL | MIC [4, 26]: 8 µg/mL | MIC [5, 27]: 64 µg/mL | MIC ([6]; VRE 18-80): 2 µg/mL | MIC ([7]; VRE 18-94): > 128 µg/mL | MIC ([8]; VRE 18-507): > 128 µg/mL | MIC [9, 28]: 16 µg/mL | MIC [10, 29]: > 128 µg/mL | MIC [11, 30]: > 128 µg/mL | MIC [12, 31]: 64 µg/mL | MIC [13, 32]: 64 µg/mL | MIC [14, 33]: 64 µg/mL | MIC [15, 34]: 64 µg/mL | MIC [16, 35]: 2 µg/mL | MIC [17, 36]: 0.5 µg/mL | MIC [18, 37]: 1 µg/mL | MIC (Salmonella ATCC 14028; [38]): 0.5 µg/mL | MIC [19, 39]: 1 µg/mL | MIC [20, 40]: 0.5 µg/mL | MIC [21, 41]: 0.5 µg/mL | MIC [22, 42]: 1 µg/mL | solubility (physchem; organic solvent or mixture): 11900 µg/mL | solubility (physchem; [43]): 3120 µg/mL | solubility (physchem; pH 7, water): 2320 µg/mL

C=C[C@]1(C)C[C@@H](OC(=O)CS[C@@H]2C[C@H]3CC[C@@H](C2)N3C)[C@]2(C)[C@H](C)CC[C@]3(CCC(=O)[C@H]32)[C@@H](C)[C@@H]1O [Retapamulin, retapamulin, reference compound]
MIC [1, 44]: 128 µg/mL (≈ 247 µM) | MIC [2, 45]: 128 µg/mL (≈ 247 µM) | MIC [3, 44]: > 128 µg/mL | MIC [4, 44]: 64 µg/mL (≈ 124 µM) | MIC [5, 44]: 128 µg/mL (≈ 247 µM) | MIC [6]: > 128 µg/mL | MIC [7]: > 128 µg/mL | MIC [8]: > 128 µg/mL | MIC [9, 45]: 128 µg/mL (≈ 247 µM) | MIC [10, 44]: 128 µg/mL (≈ 247 µM) | MIC [11, 45]: > 128 µg/mL | MIC [12, 44]: 64 µg/mL (≈ 124 µM) | MIC [13, 44]: 128 µg/mL (≈ 247 µM) | MIC [14, 44]: 128 µg/mL (≈ 247 µM) | MIC [15, 44]: 64 µg/mL (≈ 124 µM) | MIC ([16]; ATCC19606, read-out: Minimum inhibitory concentration): 16 µg/mL (≈ 30.9 µM) | MIC ([17]; ATCC25922, read-out: Minimum inhibitory concentration): 32 µg/mL (≈ 61.8 µM) | MIC ([18]; ATCC12228, read-out: Minimum inhibitory concentration): 32 µg/mL (≈ 61.8 µM) | MIC (Salmonella ATCC 14028; ATCC14028, read-out: Minimum inhibitory concentration): 128 µg/mL (≈ 247 µM) | MIC ([19]; ATCC33591, read-out: Minimum inhibitory concentration): 32 µg/mL (≈ 61.8 µM) | MIC ([20]; ATCC29213, read-out: Minimum inhibitory concentration): 4 µg/mL (≈ 7.73 µM) | MIC ([21]; ATCC25923, read-out: Minimum inhibitory concentration): 4 µg/mL (≈ 7.73 µM) | MIC ([22]; CMCC44103, read-out: Minimum inhibitory concentration): 32 µg/mL (≈ 61.8 µM)
